From the supplement of paper PMC10307832

Columns and labels:
Test in all cases: relative viability (nuclei count vs DMSO), 5 days (fraction); higher = more cells survive
Wnt-C59 = compound: CC1=NC=CC(=C1)C2=CC=C(C=C2)CC(=O)NC3=CC=C(C=C3)C4=CN=CC=C4 [Wnt-C59]
Outline: (§1)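 Nuclei counted with MetaXpress define viability as the ratio of treated to vehicle wells, given as a median across plates. The lung cancer cell lines were in 1536-well plates, pinned with five √10-spaced library-drug doses and imaged at 4× after 5 days and Hoechst staining. Plates passed with control CV below 25% and at least one doubling.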

Lapatinib = compound: CS(=O)(=O)CCNCc1ccc(-c2ccc3ncnc(Nc4ccc(OCc5cccc(F)c5)c(Cl)c4)c3c2)o1 [Lapatinib]
Outline: as §1

Wnt-C59 + Decitabine = compound: CC1=NC=CC(=C1)C2=CC=C(C=C2)CC(=O)NC3=CC=C(C=C3)C4=CN=CC=C4 [Wnt-C59] + Nc1ncn([C@H]2C[C@H](O)[C@@H](CO)O2)c(=O)n1 [Decitabine] (partner 2 µM)
Outline: (§2)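 Lung cancer cell lines in 1536-well plates got either a single drug or a fixed anchor-drug dose together with five library-drug doses (not always all listed) in √10 steps, by pin tool, on the day after seeding. Nuclei were counted after 5 days, and relative viability is the treated-to-vehicle ratio of nuclei counts. Values are medians of duplicate plates.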

Wnt-C59 + Navitoclax = compound: CC1=NC=CC(=C1)C2=CC=C(C=C2)CC(=O)NC3=CC=C(C=C3)C4=CN=CC=C4 [Wnt-C59] + CC1(C)CCC(c2ccc(Cl)cc2)=C(CN2CCN(c3ccc(C(=O)NS(=O)(=O)c4ccc(N[C@H](CCN5CCOCC5)CSc5ccccc5)c(S(=O)(=O)C(F)(F)F)c4)cc3)CC2)C1 [Navitoclax] (partner 0.5 µM)
Outline: as §2

| Cell Line | relative viability (Wnt-C59; 0.001 µM) | relative viability (Wnt-C59; 0.01 µM) | relative viability (Wnt-C59; 0.03162 µM) | relative viability (Wnt-C59; 0.1 µM) | relative viability (Lapatinib; 0.02 µM) | relative viability (Lapatinib; 0.06325 µM) | relative viability (Lapatinib; 0.2 µM) | relative viability (Lapatinib; 0.6325 µM) | relative viability (Lapatinib; 2 µM) | relative viability (Lapatinib; 2 µM, anchor plate) | relative viability (Wnt-C59 + Decitabine; first compound 0.001 µM) | relative viability (Wnt-C59 + Decitabine; first compound 0.01 µM) | relative viability (Wnt-C59 + Decitabine; first compound 0.03162 µM) | relative viability (Wnt-C59 + Decitabine; first compound 0.1 µM) | relative viability (Wnt-C59 + Navitoclax; first compound 0.001 µM) | relative viability (Wnt-C59 + Navitoclax; first compound 0.01 µM) | relative viability (Wnt-C59 + Navitoclax; first compound 0.03162 µM) | relative viability (Wnt-C59 + Navitoclax; first compound 0.1 µM) |
| --- | --- | --- | --- | --- | --- | --- | --- | --- | --- | --- | --- | --- | --- | --- | --- | --- | --- | --- |
| HOP-62 | 0.998 | 1 | 1.06 | 0.953 | 0.7 | 1.04 | 1.01 | 1.02 | 1.01 | 1.04 | 0.19 | 0.238 | 0.227 | 0.231 | 1.05 | 1.04 | 0.98 | 0.903 |
| LCLC-103H | 0.959 | 0.986 | 0.987 | 1.03 | 0.779 | 0.951 | 0.997 | 1.02 | 0.975 |  | 0.729 | 0.758 | 0.785 | 0.698 |  |  |  |  |
| Calu-6 | 1.02 | 1.01 | 1.05 | 0.987 | 0.972 | 0.971 | 1.02 | 1.03 | 0.926 | 1.04 |  |  |  |  | 0.801 | 0.97 | 0.757 | 0.787 |
| NCI-H1650 | 1.02 | 0.898 | 0.957 | 0.826 | 0.809 | 0.73 | 0.851 | 0.834 | 0.737 | 0.805 | 0.494 | 0.482 | 0.407 | 0.408 | 1.35 | 1.41 | 1.27 | 1.1 |
| NCI-H1703 | 1.02 | 0.967 | 1.05 | 0.97 | 0.907 | 0.895 | 0.944 | 1.01 | 0.825 | 1.05 |  |  |  |  | 1.45 | 1.39 | 1.08 | 1.08 |
| LK-2 | 0.958 | 0.982 | 0.993 | 1.12 | 0.852 |  | 0.914 | 1.13 | 1.11 | 1.02 | 0.319 | 0.329 | 0.319 | 0.323 | 0.884 | 0.972 | 1.02 | 0.868 |
| LCLC-97TM1 | 1.04 | 0.908 | 1.07 | 1.06 |  |  | 1.08 | 1 | 1.03 | 1.01 | 0.262 | 0.266 | 0.227 | 0.238 | 0.429 | 0.445 | 0.505 | 0.264 |
| NCI-H1793 | 0.78 | 0.681 | 1.1 | 0.976 |  | 0.642 | 0.732 | 0.803 | 0.544 | 0.714 | 0.458 | 0.461 | 0.615 | 0.521 | 0.397 | 0.398 | 0.378 | 0.95 |
| SW 900 | 0.681 | 0.755 | 0.793 | 0.823 |  | 0.765 | 0.958 | 0.836 | 0.712 |  | 0.49 | 0.43 | 0.492 | 0.402 |  |  |  |  |
| SK-MES-1 | 1.01 | 1.05 | 1.06 | 0.993 | 0.94 | 0.902 | 0.886 | 0.776 | 0.462 | 0.497 | 0.386 | 0.403 | 0.366 | 0.355 | 1.2 | 1.17 | 1.3 | 1.16 |
| NCI-H2023 | 0.948 | 1.03 | 1.15 | 0.801 | 0.796 | 0.744 | 0.926 | 0.998 | 0.823 | 0.862 | 0.227 | 0.244 | 0.251 | 0.221 | 1 | 0.993 | 1.03 | 0.944 |
| NCI-H1792 | 0.918 | 0.921 | 0.705 | 1.07 |  |  | 0.928 | 1 | 0.762 | 0.919 | 0.636 | 0.524 | 0.536 | 0.506 | 0.671 | 0.669 | 0.695 | 0.701 |
| NCI-H661 | 0.961 | 1.01 | 1.08 | 0.99 | 0.987 | 0.919 | 0.957 | 0.822 | 0.705 | 0.52 | 0.542 | 0.516 | 0.576 | 0.606 |  |  |  |  |
| NCI-H1915 | 0.995 | 0.942 | 0.969 | 1 |  | 0.975 | 1 | 0.999 | 0.977 | 0.996 | 0.261 | 0.261 | 0.262 | 0.251 | 0.822 | 0.8 | 0.77 | 0.8 |
| EPLC-272H | 1.01 | 0.886 | 1.15 | 0.987 |  | 0.733 | 0.959 | 1 | 0.783 | 0.993 | 0.443 | 0.369 | 0.472 | 0.364 | 1.09 | 1 | 1.06 | 1.21 |
| ChaGo-K-1 | 0.951 | 1.01 | 1.03 | 0.958 | 0.789 | 0.943 | 0.945 | 1 | 0.797 |  | 0.56 | 0.484 | 0.534 | 0.534 | 0.657 |  | 1.07 | 1.18 |
| NCI-H3122 | 0.989 | 0.991 | 1.02 | 0.962 | 0.912 | 0.981 | 0.992 | 0.965 | 1 | 1.03 | 0.453 | 0.477 | 0.476 | 0.385 | 1.02 | 0.976 | 0.958 | 0.98 |
| IA-LM | 1.05 | 0.909 | 0.94 | 0.884 | 0.816 | 0.977 | 1.04 | 0.902 | 0.983 | 0.848 |  |  |  |  | 0.851 | 0.751 | 0.718 | 0.751 |
| EMC-BAC-2 | 0.891 | 0.874 | 0.868 | 0.962 |  | 0.8 | 0.734 | 0.985 | 1.04 | 0.917 | 0.932 | 0.914 | 0.89 | 0.89 | 1.11 | 0.97 | 1.16 | 0.969 |
